Values after ≈ are worked out from the molar mass of the structure shown.
What was measured:
[1] = tested on: cavy ileum (serotonine spasm); assay: Antispastic activity in vitro on cavy ileum, spasmiser serotonine; type: cell-based; details: Table 2; ED50 ratio
Description: (§1) C. The method in vitro is that of Magnus, with the ileum of the cavy, and is in common use for all evaluations. It consists of extracting the ileum from the cavy and placing it in a receptacle which contains nutritive liquid, suitably oxygenated, and registering the movements of the organ which remains alive for several hours if maintained at a temperature of 37°. According to the traditional method followed by us, BaCl2 is put into the bath as a spasmisant: the reaction is a violent contraction of the organ. This contraction can be prevented by adding beforehand pharmaceuticals which inhibit spasms, and in this case our compounds.
(§2) The activities which have been described so far both in vitro and in vivo can be confirmed using different animals or different organs. These activities are further improved if, instead of BaCl2 other spasmisers are used, such as serotoninehistamine and oxytocine (see Table 2).
(§3) The values contained in the table are expressed as comparison between the
(§4) substance being studied, and they therefore express the activity of the
(§5) compounds compared with known, very active substances.

[2] = tested on: rat uterus (oxytocine spasm); assay: Antispastic activity in vitro on rat uterus, spasmiser oxytocine; type: cell-based; details: Table 2; ED50 ratio
Source text: as §2, §3, §4, §5

[3] = tested on: intestinal transit of the charcoal; assay: Vegetable carbon (charcoal) intestinal transit test in vivo; parameters: species or system rat; details: for ED50: Rattus norvegicus, iv, 2 h, i.v., rat, charcoal test, 2 hours, read-out: Antisp. activity in transit test: ED50
Description: B. The vegetable carbon method in vivo (charcoal method) which consists of administering by oral means to rats, which have fasted for 24 hours, 0.3ml/per rate of a mixture consisting of: 10g of charcoal and 5 g of gum arabic suspended in a volume of 100 cc of H2 O as well as at the same time the substance being studied, accordingly as desired, generally i.v., s.c., oral. After two hours the animals are killed and those are taken to be negative in which the charcoal has reached the first portion of the colon and the others positive, in the sense that the substance administered has slowed down the intestinal transit of the charcoal.
In effect the animals treated with a physiological solution (checks) are all negative after two hours.
D. I.T.1 is the therapeutic index under the profile of the antispastic activity in vivo, and it is obtained by recording the DL50 (column 2) with the ED50 of the charcoal test (column 3).

[4] = tested on: cavy ileum (histamine spasm); assay: Antispastic activity in vitro on cavy ileum, spasmiser histamine; type: cell-based; details: Table 2; ED50 ratio
Description: as §1, §2, §3, §4, §5

[5] = Acute toxicity (DL50) i.v. in rat; type: in vivo; details: in vivo, iv, dose causing death in 50% of the animals
Description: In this table (n. 1) there are recorded the compounds described in the examples with their relative serial numbers, the acute toxicity, the antispastic activity observed in two experimental tests, one "in vivo" and one "in vitro". There are moreover recorded two therapeutic indices which take account of the toxicity of these compounds in relation to their in vivo and in vitro activity. More precisely:
A. DL50 which, as is known, is the quantity of the substance expressed in mg/kg of animal weight, capable of causing death in 50% of the animals treated.

[6] = tested on: ileum of a cavy (BaCl2 spasm); assay: Antispastic activity in vitro, Magnus method, cavy ileum stimulated with BaCl2; type: cell-based; details: for Antispastic activity in vitro, cavy ileum, BaCl2 (relative to papaverine = 1): Table 2, ED50 of test substance papaverine / ED50 of compound; for Antisp. activity in vitro on the ileum of a cavy by Stim. BaCl2: ED50 pap./ED50 CR: ratio to papaverine = 1, Table 1, 37°
Description: as §1
The values recorded are expressed as relation between papaverine and the ED50 of our compounds. (As is known, the ED50 is the dose which results in a 50% reduction in spastic contraction).
E. I.T.2 is the therapeutic index under the profile of the antispastic activity in vitro and is given by the product between the in vitro antispastic activity index (column 4) and the corresponding DL50 (column 2).

[7] = tested on: bile ducts (sphincter of Oddi); assay: Perfusion outflow of bile ducts (bile duct spasm by morphine); type: in vivo; details: i.v.; CR 605 5, CR 725 10, CR 603 12.5 mg/kg; morphine 250 μg
Source text: (§6) The results shown in this table were obtained by perfusing with a physiological solution, the stomach and the bile ducts respectively and collecting the liquid emerging after the pylorus and the sphineter of Oddi.

stomach and pylorus = assay: Perfusion outflow of stomach and pylorus (gastro-pyloric spasm by morphine); type: in vivo; details: i.v.; CR 605 5, CR 725 10, CR 603 12.5 mg/kg; morphine 250 μg
Source text: as §6

rat's ureter = assay: Ureter of rat in vitro; type: cell-based; details: for IC50: Rattus norvegicus, read-out: Ureter of rat in vitro ED50
Source text: The in vitro evaluation was made on a rat's ureter suspended in a bath of physiological liquid according to a method similar to the Magnus method already described.

urinary bladder of a rat = assay: Urinary bladder movement of anaesthetised rat in vivo; details: for ED50: intravenous, anaesthetised rat, read-out: Urinary sac of rat in vivo ED50
Source text: The in vivo evaluation was made upon the urinary bladder of a rat anaesthetised and placed in an environment heated to the animals body temperature whilst the bladder which is exposed is linked to a system which registers its movement. The pharmaceutilcals were given to the animals by intravenous means.

SMILES	Antispastic activity in vitro, cavy ileum, serotonine (relative to methysergide = 1) [1]	Antispastic activity in vitro, rat uterus, oxytocine (relative to papaverine = 1) [2]	ED50 [3] [mg/kg]	Antispastic activity in vitro, cavy ileum, histamine (relative to prometazine = 1) [4]	LD50 [5] [mg/kg]	Antispastic activity in vitro, cavy ileum, BaCl2 (relative to papaverine = 1) [6]	Antisp. activity in vitro on the ileum of a cavy by Stim. BaCl2: ED50 pap./ED50 CR [6]	Bile ducts, %age variation between the 1st and 2nd hour [7]	Stomach and pylorus, %age variation between 1st and 2nd hour (stomach and pylorus) [%]	IC50 (rat's ureter) [µg/mL]	I.T.1: DL50/ED50 in vivo ([3]; therapeutic index, DL50 / charcoal ED50, rat i.v.)	ED50 (urinary bladder of a rat) [mg/kg]	Ureter of rat in vitro ED50 (rat's ureter)	activity in the urinary tract tests (urinary bladder of a rat; statement on the bladder and ureter tests of Table 3)	Bile ducts, outflow after the 1st hour [7] [mL]	Bile ducts, outflow after the 2nd hour [7] [mL]	Stomach and pylorus, outflow after the 1st hour (stomach and pylorus) [mL]	Stomach and pylorus, outflow after the 2nd hour (stomach and pylorus) [mL]
CCCN(CCC)C(=O)C(Cc1ccc(OCCN(CC)CC)cc1)NC(=O)c1ccc(Cl)cc1 (racemic) [CR 716, O-(2-diethylamino-ethyl)-N-(p-chloro-benzoyl)-DL-tyrosil-di-n-propylamide]	0.74	0.06	26.5	0.08	56.4	1.58	1.58	–	–	–	–	–	–	–	–	–	–	–
CN1CC[C@]23c4c5ccc(O)c4O[C@H]2[C@@H](O)C=C[C@H]3[C@H]1C5 [Morphine, morphine, reference compound]	–	–	–	–	–	–	–	-48.3%	-54.5	–	–	–	–	–	–	–	–	–
COc1ccc(Cc2nccc3cc(OC)c(OC)cc23)cc1OC [Papaverine, papaverine, reference compound]	–	–	22.5	–	27.2	–	1	–	–	45.2 (≈ 133 µM)	1.2	7.59	–	–	–	–	–	–
CN1[C@@H]2CC[C@H]1C[C@@H](OC(=O)C(CO)c1ccccc1)C2 (some centres unmarked) [Atropine, atropine, reference compound]	–	–	–	–	–	–	–	–	–	–	–	–	inactive	inactive	–	–	–	–
CCCN(CCC)C(=O)C(Cc1ccc(OCCN(CC)CC)cc1)NC(=O)c1ccccc1 (racemic) [CR 605, O-(2-diethylamino-ethyl)-N-benzoyl-DL-tyrosil-di-n-propylamide]	0.69	0.09	10.6	0.17	33.9	1.25	1.25	+21.5%	–	74.2 (≈ 159 µM)	–	6.25	–	–	46.6	56.6	131.2	132.9
CCCN(CCC)C(=O)C(Cc1ccc(OCCCN2CCN(C)CC2)cc1)NC(=O)c1ccc(Cl)cc1 (racemic) [CR 725, O-[3-(N"-methyl-piperazine)-N'-propyl]-N-(p-chloro-benzoyl)-DL-tyrosil-di-n-propylamide]	1.2	0.18	12.2	0.24	62.6	3.20	3.20	–	–	27.3 (≈ 50.3 µM)	–	8.32	–	–	49.7	53.2	167.2	165.5

— US4004008A, “O-Tertiary amino-alkyl-N-benzoyl tyrosil amides” (priority 1974, dated 1977)
